According to patent US20150265621A1, “Treating Bronchiectasis With Doxofylline and Erdosteine” (Alitair Pharmaceuticals, Inc., priority 2014, published 2015):
Where two headings read alike, the source gives them in different places.

Tests used:
[1] = system: bronchiectasis patients with mucus hypersecretion; assay: Summary (mean, weighted mean) of the three erdosteine bronchiectasis studies; assay type: in vivo, human; details: erdosteine 300 mg BID + PCT
Method: There are three published studies showing effectiveness of erdosteine in the treatment of bronchiectasis: Crisafulli et al (2007), Buquan and Xinke (2011) and Yipin (2012). The three studies have a total of 170 subjects, 85 of whom received standard care consisting of Percussive Chest Therapy (PCT) for up to 15 days. The remaining 85 received PCT plus treatment with erdosteine 300 mg BID for the same length of time. […] FEV1, FVC, PEF, MIP, MEP, PaO2 and PaCO2 measured according to test methods described by Mason et al, 2005. FEV1=forced expiratory volume in one second, measured in liters. FVC=forced vital capacity, total amount air the patient can expel in one breath, measured in liters. PEF=peak expiratory flow, measure in liters per second. MIP=maximum inhalation pressure. MEP=Maximum expiratory pressure. PaO2=partial pressure of oxygen. PaCO2=partial pressure of carbon dioxide. […] Again, the results are similar in terms of order of magnitude and consistent in showing an incremental benefit to adding erdosteine to PCT in bronchiectasis patients. […] The use of erdosteine with PCT produces significant and clinically meaningful changes in the respiratory functioning of patients with bronchiectasis and mucus hypersecretion as compared to PCT alone.

[2] = system: bronchiectasis patients with mucus hypersecretion; details: Crisafulli; erdosteine 300 mg BID + PCT up to 15 days; 15 subjects; cited from earlier work
[3] = system: bronchiectasis patients with mucus hypersecretion; details: Yipin; erdosteine 300 mg BID + PCT up to 15 days; 40 subjects; cited from earlier work
[4] = system: bronchiectasis patients with mucus hypersecretion; details: Buquan; erdosteine 300 mg BID + PCT up to 15 days; 30 subjects; cited from earlier work
[5] = system: bronchiectasis patients with mucus hypersecretion; details: cited from earlier work
[6] = system: adults with CT scan confirmed bronchiectasis; details: nebulized, vs placebo, cited from earlier work
chronic asthma subjects = details: randomized clinical study; cited from earlier work
[7] = system: patients with theophylline overdose; details: cited from earlier work
CF patients = details: intravenous; cited from earlier work
[8] = weighted by % total subjects (18%, 47%, 35%)

## O=C(O)CSCC(=O)NC1CCSC1=O (stereo not shown) [Erdo, erdosteine]
[1]; mean of the three studies
  FEV1 change vs baseline, Mean: 0.2 L
  FVC change vs baseline, Mean: 0.3 L
  MEP change vs baseline, Mean: 9.3 Kpa
  MIP change vs baseline, Mean: 9 kPa
  PEF change vs baseline, Mean: 0.3 L/s
  PaCO2 change vs baseline, Mean: 1.3 mm Hg
  PaO2 change vs baseline, Mean: 5.5 mm Hg
[1]; [8]
  FEV1 change vs baseline, Wtd Mean Diff: 0.26 L
  FVC change vs baseline, Wtd Mean Diff: 0.36 L
  MEP change vs baseline, Wtd Mean Diff: 9.69 Kpa
  MIP change vs baseline, Wtd Mean Diff: 9.09 kPa
  PEF change vs baseline, Wtd Mean Diff: 0.35 L/s
  PaCO2 change vs baseline, Wtd Mean Diff: 1.35 mm Hg
  PaO2 change vs baseline, Wtd Mean Diff: 5.70 mm Hg
[2]
  FEV1 change vs baseline: 0.2 L
  FVC change vs baseline: 0.3 L
  MEP change vs baseline: 8.4 Kpa
  MIP change vs baseline: 8.9 kPa
  PEF change vs baseline: 0.3 L/s
  PaCO2 change vs baseline: 0.1 mm Hg
  PaO2 change vs baseline: 5.1 mm Hg
[3]
  FEV1 change vs baseline: 0.34 L
  FVC change vs baseline: 0.43 L
  MEP change vs baseline: 11.3 Kpa
  MIP change vs baseline: 9.9 kPa
  PEF change vs baseline: 0.4 L/s
  PaCO2 change vs baseline: 2.6 mm Hg
  PaO2 change vs baseline: 6.3 mm Hg
[4]
  FEV1 change vs baseline: 0.19 L
  FVC change vs baseline: 0.31 L
  MEP change vs baseline: 8.2 Kpa
  MIP change vs baseline: 8.1 kPa
  PEF change vs baseline: 0.3 L/s
  PaCO2 change vs baseline: 0.3 mm Hg
  PaO2 change vs baseline: 5.2 mm Hg
[5]
  effect of erdosteine with PCT compared to PCT alone on respiratory functioning: significantly enhances the effect of PCT alone

## NC[C@H]1O[C@H](O[C@H]2[C@H](O)[C@@H](O[C@H]3O[C@H](CO)[C@@H](O)[C@H](N)[C@H]3O)[C@H](N)C[C@@H]2N)[C@H](N)C[C@@H]1O [tobramycin]
[6]; after four weeks of treatment
  effect on FEV1: no effect
[6]; four weeks of treatment
  eradication of P. aeruginosa: significant effect

## Cn1c(=O)c2[nH]cnc2n(C)c1=O [theophylline]
Chronic asthma subjects
  subjects dropped out of the study due to side effects: 31%
[7]
  patients treated in an emergency setting for overdose who die: Ten
CF patients
  effect on FEV1 and FEF 0.75: positive results

## Cn1c(=O)c2c(ncn2CC2OCCO2)n(C)c1=O [doxofylline]
Chronic asthma subjects
  effectiveness in treating chronic asthma compared to theophylline: as effective as theophylline
  subjects dropped out of the study due to side effects: 11%
